Test results: patent US12180187B2, “1-phenyl-5-azinylpyrazolyl-3-oxyalkyl acids and their use for controlling unwanted plant growth” (BAYER AKTIENGESELLSCHAFT, priority 2019, dated 2024)

Tests used:
ECHGC = assay: Pre-emergence action at 320 g/ha against ECHGC; assay type: in vivo, Echinochloa crus-galli; conditions: visual scoring after about 3 weeks vs untreated controls
In short: (§1)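 Visual scoring in percent against untreated controls, about 3 weeks after treatment, where 100% means dead plants and 0% means no difference. Compounds were applied as aqueous suspension or emulsion (WP or EC, plus 0.5% additive) onto soil covering freshly sown seeds, at 600 l/ha water.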

SETVI = assay: Pre-emergence action at 320 g/ha against SETVI; assay type: in vivo, Setaria viridis; conditions: visual scoring after about 3 weeks vs untreated controls
In short: as §1

AVEFA = assay: Pre-emergence action at 320 g/ha against AVEFA; assay type: in vivo; conditions: visual scoring after about 3 weeks vs untreated controls
In short: as §1

VIOTR = assay: Pre-emergence action at 320 g/ha against VIOTR; assay type: in vivo, Viola tricolor; conditions: dosage 320 g/ha
In short: as §1

ALOMY = assay: Pre-emergence action at 320 g/ha against ALOMY; assay type: in vivo, Alopecurus myosuroides; conditions: scored visually after about 3 weeks vs untreated controls (100% = plants have died)
In short: as §1

MATIN = assay: Pre-emergence action at 320 g/ha against MATIN; assay type: in vivo, Tripleurospermum inodorum (Matricaria inodora); conditions: visual scoring after about 3 weeks vs untreated controls
In short: as §1

POLCO = assay: Pre-emergence action at 320 g/ha against POLCO; assay type: in vivo, Fallopia convolvulus (Polygonum convolvulus); conditions: visual scoring after about 3 weeks vs untreated controls
In short: as §1

LOLRI = assay: Pre-emergence action at 320 g/ha against LOLRI; assay type: in vivo, Lolium rigidum; conditions: visual scoring after about 3 weeks vs untreated controls
In short: as §1

ABUTH = assay: Pre-emergence action at 320 g/ha against ABUTH; assay type: in vivo, Abutilon theophrasti; conditions: greenhouse, scored visually after about 3 weeks vs untreated controls, 100% = plants have died, 0% = like control plants
From the text: b) Seeds of monocotyledonous and dicotyledonous weed plants and crop plants are placed in plastic or organic planting pots and covered with soil. The compounds of the invention, formulated in the form of wettable powders (WP) or as emulsion concentrates (EC), are then applied onto the surface of the covering soil as aqueous suspension or emulsion with addition of 0.5% additive at a water application rate of 600 l/ha (converted). After the treatment, the pots are placed in a greenhouse and kept under good growth conditions for the trial plants. After about 3 weeks, the effect of the preparations is scored visually in comparison with untreated controls as percentages. For example, 100% activity=the plants have died, 0% activity=like control plants. Tables 13 to 26 below show the effects of selected compounds of the general formula (I) on various harmful plants and at an application rate corresponding to 320 g/ha, which were obtained by the experimental procedure mentioned above.

VERPE = assay: Pre-emergence action at 320 g/ha against VERPE; assay type: in vivo, Veronica persica; conditions: visual scoring after about 3 weeks vs untreated controls
In short: as §1

PHBPU = assay: Pre-emergence action at 320 g/ha against PHBPU; assay type: in vivo; conditions: visual scoring after about 3 weeks vs untreated controls
In short: as §1

AMARE = assay: Pre-emergence action at 320 g/ha against AMARE; assay type: in vivo, Amaranthus retroflexus; conditions: visual scoring after about 3 weeks vs untreated controls
In short: as §1

Compound | Pre-emergence action against ECHGC in % (ECHGC) [%] | Pre-emergence action against SETVI in % (SETVI) [%] | Pre-emergence action against AVEFA in % (AVEFA) [%] | Pre-emergence action against VIOTR in % (VIOTR) [%] | Pre-emergence action at 320 g/ha against ALOMY in % (ALOMY) [%] | Pre-emergence action against MATIN in % (MATIN) [%] | Pre-emergence action against POLCO in % (POLCO) [%] | Pre-emergence action against LOLRI in % (LOLRI) [%] | Pre-emergence action at 320 g/ha against ABUTH in % (ABUTH) [%] | Pre-emergence action against VERPE in % (VERPE) [%] | Pre-emergence action against PHBPU in % (PHBPU) [%] | Pre-emergence action against AMARE in % (AMARE) [%]
COC(=O)[C@@H](C)Oc1nn(-c2cc(F)ccc2F)c(-c2cncc(F)c2)c1I [VII-135] | 90 | 100 | 90 | 100 | 100 | 90 | 100 | 100 | 80 | 100 | 90 | 100
CCOC(=O)[C@@H](C)Oc1nn(-c2cc(F)ccc2F)c(-c2cncc(F)c2)c1Br [VII-136] | 90 | 100 | 90 | 100 | 100 | 90 | 100 | 90 | 80 | 100 | 90 | 100
